One experiment has as its system Aedes taeniorhynchus. Nature of the experiment: Mosquito repellency of undecanone, treated gauze glove in cage. It counts as in vivo. The protocol: Forty milliliters of a 2.5 percent solution of undecanone in absolute ethanol was added to a gauze glove (20×15 centimeters) in a 250 milliliter beaker. After soaking for 1 minute, the glove was laid onto aluminum foil in a fume hood for 13 minutes and then suspended by one end from the sash of the fume hood for 3 minutes. The ethanol appeared to be completely evaporated after this treatment as determined by touch. […] The same treatment was used without undecanone as a control. After the same drying steps, no odor of ethanol could be detected by smell. The control glove was the same physical dimensions and made from the same batch of material as the treatment. […]
Approximately 100 adult male and female mosquitoes (Aedes taeniorhynchus) (exact sex ratio not determined) were placed in a 12×12×14.5 inch stainless steel screened cage. […]
The following data are the control responses when the tester's hand covered by the ethanol treated (dried) glove was placed into the mosquito cage (at room temperature) for 20 seconds at the times indicated: 0 minutes, 10 landings and 1 bite; 10 minutes, 9-12 landings and 1 bite; 20 minutes, approximately 13 landings and no bites; and 40 minutes, approximately 13 landings and no bites. […] However, only sustained landings of about 5 seconds were recorded as a positive response along with actual bites. […]

The subject of the next experiment is Culex spp. Description: Mosquito repellency of 2-undecanone versus DEET, treated cloth on forearm (Example 8). It counts as in vivo. To be noted: 5% and 20% in ethyl alcohol sprayed onto cloth; landings in 5 minutes. The protocol:
2-undecanone was dissolved in ethyl alcohol (v/v at 5% and 20%) and approximately 1 ml was sprayed onto cloth that was then wrapped around the investigator's forearm prior to insertion into a 59 cm×55 cm×59 cm mosquito cage containing approximately 100 Culex spp. adult mosquitoes. DEET was a formulated, commercial product (Cutter). The number of mosquito landings in 5 minutes was recorded as well as the overall behavior response of the mosquitoes. […] The most impressive evidence of this repellent effect was the observation that the mosquitoes immediately disperse away from the treated arm and actually stop flying, instead lining up on the wire screen of the cage.
The results are shown in FIG. 5 as a graph of repellency as a function of time for 0 hr, 3 hr and 6 hr post-application of the formulations (i) 21% DEET, (ii) 20% 2-undecanone (IBI-246) and (iii) 5% 2-undecanone (IBI-246), where repellency={[# mosquito landings in Control test/# mosquitoes present in Control)−(# mosquito landings in Experiment/# mosquitoes present in Experiment)] divided by (# mosquito landings in Control test/# mosquitoes present in Control)}×100.

For the compound `CCCCCCCCCC(C)=O` [2-undecanone], in the experiment on Aedes taeniorhynchus (glove soaked in 2.5 percent solution in ethanol, dried, hand in cage 20 seconds at 0 minutes to 4 hours and 40 minutes), the landings and bites entry is “No landings and no bites”. Also, the host seeking behavior entry in the experiment with Aedes taeniorhynchus (glove soaked in 2.5 percent solution, first 3 to 4 hours) is “no host seeking behavior”. Besides, in the experiment on Culex spp., the “concentrations with the strongest repellent effect” value is “strongest effect at the 20% and 5% concentrations”.

(Values after patent US7288573B2, “Method of repelling insects” (priority 2001, dated 2007).)
